Experimental findings from patent publication US20080255244A1, “CaM Kinase II Inhibitor Improves Retinoic Acid Therapy and Inhibits the Proliferation of Myeloid Leukemia Cells” (Fred Hutchinson Cancer Research Center, priority 2007, published 2008) are described below.

Assay [1] has as its system RAR transcriptional activity in HL60 cells. In words: RARE-driven luciferase reporter in HL60 cells. Format: cell-based, human. The conditions noted are these: KN62 5 uM, KN93 5 uM, ATRA 1 uM, six hours. How it is done:
FIG. 1. CaM kinase isoform expression in hematopoietic cells. (A) The activity of an ATRA-responsive luciferase reporter (βRARE-tk-Luc, 25 μg) was assessed in electroporated HL60 cells six hours after treatment with the indicated concentrations of ionomycin and ATRA. (B) The activity of the luciferase reporter (βRARE-tk-Luc, 25 μg) was assessed in HL60 six hours after treatment with KN62 (5 uM), KN93 (5 uM) and ATRA (1 uM). (C) Western blots were performed utilizing the indicated antibodies. F9 (column 6) is a mouse embryonal carcinoma cell line. BaF3 (column 7) is a cultured pre-B cell line. BM cells (column 8) are kit-ligand dependent normal murine hematopoietic precursors. PT67 murine fibroblasts individually transduced with either rat CaMKIIα, human CaMKIα or human CaMKIV (column 9) together with brain lysates (column 1) serve as positive controls for the respective antibodies. (D) CaMK assays were performed on HL-60 cell lysates immunoprecipitated with the indicated antibodies.
(§1) Transient transfections and luciferase assays. Murine PT67 fibroblasts were transfected utilizing calcium phosphate precipitation. All hematopoietic cell lines were transiently transfected by electroporation as previously detailed (Johnson, B. et al., Molecular and Cellular Biology 19:3372-3382 (1999)). In the transient transfections the LXSN vector (M28248) served as the expression vector for the wild type and site-directed mutagenized CaMKII and RARα coding region cDNAs. Human cDNA homologous to the coding region of rat CaMKIINα, a CaMKII inhibitory protein, was obtained by RT-PCR from HL60 RNA and cloned into the LXSN vector. The RA-responsive luciferase reporter harbors the RARE from the RARβ2 promoter as previously detailed (Si, J., and Collins, S. J., Blood 100:4401-4409 (2002)). The PON838 plasmid, a β-galactosidase reporter driven by the β-actin promoter, was used as an internal control to determine transfection efficiency for calculating relative luciferase activity.
For orientation: Reporter assays use an easily measured gene product as a stand-in for the process of interest.

The next assay relates to K-562 cells. Kind of assay: Differentiation of K-562 cells. Type of assay: cell-based, human. From the text: Pharmacological CaMK inhibitors trigger myeloid leukemia cell differentiation. Particularly compelling evidence for the physiological importance of the CaMKII—mediated regulation of RAR activity is our experimental observation that KN-62, a pharmacological inhibitor of the CaMKs, enhances both RAR transcriptional activity (FIG. 1B) and the differentiation of certain myeloid leukemia cell lines (FIG. 7). Acute myelogenous leukemia (AML) is a heterogenous disease, and successful therapy with RA has been generally confined to those leukemias harboring RARα chromosome translocations.
Inhibitors of CaMKII inhibit the proliferation of myeloid leukemia cell lines. To determine whether inhibiting CaMKIIγ activity might have any effect on myeloid leukemia cell proliferation/viability, we treated K562 cells with the CaMK inhibitor KN93. […] The KN93 induced inhibition of K562 cell proliferation was accompanied by a reduction in the levels of the activated (autophosphorylated) CaMKIIγ (FIG. 12A, row 1).

Assay [2] deals with NB4 promyelocytic leukemia cell line. Kind of assay: Differentiation of NB4 cells (morphology, Cd11b). Format: cell-based, human. The conditions noted are these: five days; for morphologic granulocytic differentiation of NB4: single agent, KN-62 5 μM, ATRA 10^−9 M. As for the experimental part: (§2) FIG. 7. KN-62 regulates the differentiation of myeloid leukemia cell lines. (A) Wright Giemsa-stained HL-60 cells either (a) uninduced or treated for five days with (b) KN62 or (c) ATRA. (d) CD11b expression in HL-60 cells after five days exposure to KN62 (5 μM) or ATRA (1 μM). (B) Wright-Giemsa stained NB4 cells treated for five days with KN-62 (5 μM) and ATRA as indicated. […] (C) Cd11b expression of NB4 cells treated for five days with the indicated concentrations of RA and/or KN-62. (D) Western blots with the indicated antibodies were performed on HL60 cell lysates following incubation with KN62 for the indicated period of time. (E) Western blots of NB4 cell lysates following a five day incubation with the indicated compounds.
Antibodies and chemical reagents. Antibodies against RARα, βtubulin, CaMKIIα, CaMKIIβ, CaMKIIγ, CaMKIIδ, CaMKIα, as well as phosphospecific antibodies against CaMKII were all purchased from Santa Cruz Biotechnology. Antibodies against N-CoR and SMRT were from Upstate Biotechnology. CaMKIV antibody was from BD Biosciences. Anti-FLAG antibody was from Sigma while anti-HA antibody from Novachem. Quantitation of CD11b surface antigen expression was performed utilizing the fluorescent-activated cell sorter (FACS) with PE-conjugated anti-CD11b antibody from Becton Dickinson. KN-62, KN-93 and ionomycin were obtained from Calbiochem. ATRA and calmodulin agarose beads were from Sigma.

Assay [3] has as its system autophosphorylated CaMKIIγ in NB4 cells. In words: Western blot of CaMKIIγ autophosphorylation in NB4 cells. Type of assay: cell-based, human. Conditions: for activated, autophosphorylated CaMKIIγ level: single agent, ATRA 1 μM, arsenic trioxide 1 uM. As for the experimental part:
as §2
FIG. 9. Terminal differentiation/apoptosis of myeloid leukemia cells is associated with decreased CaMKIIγ activation. (A) Lysates from the HL60, NB4 and U937 myeloid cell lines treated with ATRA (1 μM) for the indicated period of time were subjected to Western blots. (B) Lysates from the indicated myeloid cell lines treated for five days with the indicated concentration of ATRA were subjected to Western blots. (C) Lysates from HL60 cells treated with TPA (0.1 μM) for the indicated time were subjected to Western blots. (D) Lysates from NB4 cells treated with arsenic trioxide (1 uM) for the indicated time were subjected to Western blots.
Protein extracts, Western blotting and co-immunoprecipitations. Westerns and co-immunoprecipitations were performed as previously detailed (Si, J., and Collins, S. J., Blood 100:4401-4409 (2002)).
Antibodies and Western blots. Protein extracts, immunoprecipitations and Western blots were performed as previously detailed (Si J, Collins S J. IL-3-induced enhancement of retinoic acid receptor activity is mediated through Stat5, which physically associates with retinoic acid receptors in an IL-3-dependent manner. Blood 100: 4401-9 (2002)). Antibodies against CaMKI, CaMKIIγ, CaMKIV, c-myc, Stat3, Stat5, calmodulin, as well as the phosphospecific CaMKII (T286, 287) and phosphospecific CaMKI (T177) antibodies were from Santa Cruz Biotechnology. Antibodies against phospho-Stat1 (Ser727), phospho-Stat3 (Ser727 and Tyr 705), phospho-Stat5 (Tyr 694), phospho-p44/42 MAP kinase (Thr202/Tyr 204), p44/42 MAP kinase, phospho-p38 MAP kinase (Thr 180/Tyr 182), phospho-GSK3β (Ser9) were from Cell Signaling Technology. Antibodies against Stat1, GSK3β, β-catenin, PP2Ac, and cyclin D1 were from BD Biosciences.
Background: A western blot detects proteins with antibodies after separation by electrophoresis.

The next assay deals with T1, RARα/N-CoR interaction (Homo sapiens, UniProt P10276).
T1 construct: expressed in transfected cells; host or cells: MPRO promyelocytes (murine), electroporated
Kind of assay: Mammalian two hybrid, Gal-N-CoR / RARαVP16, in MPRO promyelocytes. Type of assay: cell-based. Conditions: ATRA six hours, KN62 48 hours.
Excerpt: as §1

T1 sequence (P10276 whole entry): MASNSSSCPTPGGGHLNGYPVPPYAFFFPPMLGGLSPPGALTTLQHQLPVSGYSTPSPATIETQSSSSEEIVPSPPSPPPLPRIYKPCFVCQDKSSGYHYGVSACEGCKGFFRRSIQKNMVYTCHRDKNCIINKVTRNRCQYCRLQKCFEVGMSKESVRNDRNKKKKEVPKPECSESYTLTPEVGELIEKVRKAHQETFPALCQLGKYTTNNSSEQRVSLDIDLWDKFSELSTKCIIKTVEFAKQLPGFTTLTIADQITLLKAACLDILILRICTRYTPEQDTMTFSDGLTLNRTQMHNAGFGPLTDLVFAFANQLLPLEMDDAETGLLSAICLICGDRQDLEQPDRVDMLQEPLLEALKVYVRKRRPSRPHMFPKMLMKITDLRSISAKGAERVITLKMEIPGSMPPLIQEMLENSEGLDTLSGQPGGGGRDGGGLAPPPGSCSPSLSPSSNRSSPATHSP

In the case of `COc1ccc(S(=O)(=O)N(CCO)c2ccccc2CN(C)C/C=C/c2ccc(Cl)cc2)cc1` [KN-93], in assay [1], the “RAR transcriptional activity (βRARE-tk-Luc reporter)” value was “enhance”. Besides, the “morphologic differentiation of K562” value in the assay with K-562 cells (KN93 treated K562) is recorded as “no effect”.
With `CN([C@@H](Cc1ccc(OS(=O)(=O)c2cccc3cnccc23)cc1)C(=O)N1CCN(c2ccccc2)CC1)S(=O)(=O)c1cccc2cnccc12` [KN-62], in assay [2] (KN-62 (5 μM) in combination with RA 10^−9M-10^−10M), the “granulocytic differentiation of NB4 (morphology, Cd11b surface antigen)” value is reported as “marked increase”. Besides, the “morphologic granulocytic differentiation of NB4” value in assay [2] is on record as “relatively poor inducer”. Besides, in assay [1], the “RAR transcriptional activity (βRARE-tk-Luc reporter)” value was “enhance”. Further, the “differentiation of K-562” value in the assay with K-562 cells (preliminary studies, not shown) is reported as “does not induce”. The “autophosphorylated CaMKIIγ level” value in assay [3] (KN62 combined with relatively low concentrations of RA, five days) was “reduction”. Besides, the “activated, autophosphorylated CaMKIIγ level” value in assay [3] is recorded as “little effect”. For the same molecule, the “(UAS)5-driven luciferase reporter activity (RARα/N-CoR interaction)” value at RARα/N-CoR interaction is reported as “significantly inhibits”.
Take `CC1=C(/C=C/C(C)=C/C=C/C(C)=C/C(=O)O)C(C)(C)CCC1` [ATRA, All-trans retinoic acid]: the “morphologic granulocytic differentiation of NB4” value in assay [2] is “little differentiation”. In addition, in assay [3], the “total CaMKIIγ level” value is reported as “essentially unchanged” and the “activated, autophosphorylated CaMKIIγ level” value was “marked decrease”. Also, the “(UAS)5-driven luciferase reporter activity (RARα/N-CoR interaction)” value at RARα/N-CoR interaction was “marked decrease”.
